The values that follow come from ChEMBL document CHEMBL3991601, “The target landscape of clinical kinase drugs” (Science, 2017).

Assay [1] addresses Cyclin-dependent kinase 2 (Homo sapiens, UniProt P24941).
Assay [2] addresses T1, Inhibitor of nuclear factor kappa-B kinase subunit epsilon (Homo sapiens, UniProt Q14164).
T1 sequence (Q14164 whole entry): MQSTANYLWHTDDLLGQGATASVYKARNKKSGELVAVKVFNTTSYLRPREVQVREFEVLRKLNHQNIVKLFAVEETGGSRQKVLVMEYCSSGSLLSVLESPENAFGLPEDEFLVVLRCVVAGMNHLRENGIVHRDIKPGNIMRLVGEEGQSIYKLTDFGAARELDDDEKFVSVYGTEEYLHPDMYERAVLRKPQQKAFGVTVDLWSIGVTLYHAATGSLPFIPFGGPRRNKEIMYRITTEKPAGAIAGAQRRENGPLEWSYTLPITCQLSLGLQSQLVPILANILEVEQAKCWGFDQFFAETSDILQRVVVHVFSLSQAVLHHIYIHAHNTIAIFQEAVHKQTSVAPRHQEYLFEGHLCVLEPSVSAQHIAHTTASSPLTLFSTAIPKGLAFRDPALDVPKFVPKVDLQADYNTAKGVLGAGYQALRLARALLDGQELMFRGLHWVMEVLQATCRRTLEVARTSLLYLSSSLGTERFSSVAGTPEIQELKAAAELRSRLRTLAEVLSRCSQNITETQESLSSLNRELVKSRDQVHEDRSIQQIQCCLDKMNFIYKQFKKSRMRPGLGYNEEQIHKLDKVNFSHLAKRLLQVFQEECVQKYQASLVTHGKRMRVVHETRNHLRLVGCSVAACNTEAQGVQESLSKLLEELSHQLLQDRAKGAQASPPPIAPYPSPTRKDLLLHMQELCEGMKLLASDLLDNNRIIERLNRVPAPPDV

In assay [3] the target is Obg-like ATPase 1 (Homo sapiens, UniProt Q9NTK5).
Sequence of Obg-like ATPase 1 (Q9NTK5 whole entry, looked up): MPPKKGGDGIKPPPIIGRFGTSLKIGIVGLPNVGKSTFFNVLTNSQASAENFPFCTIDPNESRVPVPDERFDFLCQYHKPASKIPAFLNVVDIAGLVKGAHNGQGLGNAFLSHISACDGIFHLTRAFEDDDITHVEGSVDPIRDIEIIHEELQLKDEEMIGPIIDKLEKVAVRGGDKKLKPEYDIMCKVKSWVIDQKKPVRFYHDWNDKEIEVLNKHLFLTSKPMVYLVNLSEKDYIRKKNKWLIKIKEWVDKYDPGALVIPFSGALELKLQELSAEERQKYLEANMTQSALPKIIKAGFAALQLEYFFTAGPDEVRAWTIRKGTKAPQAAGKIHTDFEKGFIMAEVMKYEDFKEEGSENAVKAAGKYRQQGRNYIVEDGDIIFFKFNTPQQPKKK
Assay [4] addresses T2, Thyroid hormone receptor-associated protein 3 (Homo sapiens, UniProt Q9Y2W1).
T2 sequence (Q9Y2W1 whole entry): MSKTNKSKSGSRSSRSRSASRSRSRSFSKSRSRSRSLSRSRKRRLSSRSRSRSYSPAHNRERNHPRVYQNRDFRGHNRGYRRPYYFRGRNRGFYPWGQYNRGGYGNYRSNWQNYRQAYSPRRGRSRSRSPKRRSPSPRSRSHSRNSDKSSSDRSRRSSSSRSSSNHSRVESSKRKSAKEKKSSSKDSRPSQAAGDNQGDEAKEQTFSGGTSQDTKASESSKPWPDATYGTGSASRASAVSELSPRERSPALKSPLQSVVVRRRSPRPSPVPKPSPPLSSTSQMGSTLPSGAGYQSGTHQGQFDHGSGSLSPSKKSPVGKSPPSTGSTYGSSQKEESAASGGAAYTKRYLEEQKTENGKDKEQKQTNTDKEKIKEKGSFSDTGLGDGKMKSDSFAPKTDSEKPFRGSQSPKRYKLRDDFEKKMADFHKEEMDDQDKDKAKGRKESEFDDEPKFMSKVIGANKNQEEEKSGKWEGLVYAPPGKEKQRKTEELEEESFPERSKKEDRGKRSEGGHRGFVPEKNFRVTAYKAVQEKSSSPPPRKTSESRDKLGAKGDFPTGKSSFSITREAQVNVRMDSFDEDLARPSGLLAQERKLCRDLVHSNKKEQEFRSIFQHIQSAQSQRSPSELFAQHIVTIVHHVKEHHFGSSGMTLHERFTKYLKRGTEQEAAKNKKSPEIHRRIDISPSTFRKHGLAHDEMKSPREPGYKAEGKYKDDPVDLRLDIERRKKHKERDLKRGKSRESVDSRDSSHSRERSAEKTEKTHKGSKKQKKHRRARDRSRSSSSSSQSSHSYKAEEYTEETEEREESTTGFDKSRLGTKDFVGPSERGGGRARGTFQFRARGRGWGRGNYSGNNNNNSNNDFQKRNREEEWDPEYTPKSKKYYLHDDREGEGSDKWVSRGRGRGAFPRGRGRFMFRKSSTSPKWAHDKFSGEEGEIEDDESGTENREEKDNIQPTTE

Assay [5] deals with T3, Isoleucine--tRNA ligase, mitochondrial (Homo sapiens, UniProt Q9NSE4).
T3 sequence (Q9NSE4 whole entry): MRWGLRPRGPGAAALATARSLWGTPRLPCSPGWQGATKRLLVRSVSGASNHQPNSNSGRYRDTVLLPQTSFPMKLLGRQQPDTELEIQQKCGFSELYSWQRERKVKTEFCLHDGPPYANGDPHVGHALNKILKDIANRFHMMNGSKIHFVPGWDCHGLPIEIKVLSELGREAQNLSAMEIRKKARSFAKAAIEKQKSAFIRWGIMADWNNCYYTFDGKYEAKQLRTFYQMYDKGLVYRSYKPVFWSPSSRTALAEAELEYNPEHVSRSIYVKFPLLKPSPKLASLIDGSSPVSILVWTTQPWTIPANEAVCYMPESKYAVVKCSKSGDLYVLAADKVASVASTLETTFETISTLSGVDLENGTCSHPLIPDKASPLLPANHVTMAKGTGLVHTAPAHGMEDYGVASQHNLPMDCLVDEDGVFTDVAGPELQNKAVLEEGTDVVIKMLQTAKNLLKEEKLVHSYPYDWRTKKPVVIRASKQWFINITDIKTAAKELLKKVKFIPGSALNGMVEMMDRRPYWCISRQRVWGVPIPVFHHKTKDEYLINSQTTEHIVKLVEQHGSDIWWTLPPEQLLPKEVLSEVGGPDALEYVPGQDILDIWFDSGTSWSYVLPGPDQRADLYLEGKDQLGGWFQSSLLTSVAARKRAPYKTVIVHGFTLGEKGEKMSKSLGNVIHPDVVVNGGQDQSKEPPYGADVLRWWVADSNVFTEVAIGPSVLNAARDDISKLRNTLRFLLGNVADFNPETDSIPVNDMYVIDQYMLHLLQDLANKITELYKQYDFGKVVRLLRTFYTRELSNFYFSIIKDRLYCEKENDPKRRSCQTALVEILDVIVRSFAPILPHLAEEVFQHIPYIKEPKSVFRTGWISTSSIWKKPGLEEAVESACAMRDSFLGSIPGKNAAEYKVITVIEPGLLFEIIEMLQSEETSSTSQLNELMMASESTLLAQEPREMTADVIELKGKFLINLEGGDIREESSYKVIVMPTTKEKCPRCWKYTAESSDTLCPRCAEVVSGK

The target of assay [6] is Dual specificity protein kinase CLK4 (Homo sapiens, UniProt Q9HAZ1).
Sequence of Dual specificity protein kinase CLK4 (Q9HAZ1 whole entry): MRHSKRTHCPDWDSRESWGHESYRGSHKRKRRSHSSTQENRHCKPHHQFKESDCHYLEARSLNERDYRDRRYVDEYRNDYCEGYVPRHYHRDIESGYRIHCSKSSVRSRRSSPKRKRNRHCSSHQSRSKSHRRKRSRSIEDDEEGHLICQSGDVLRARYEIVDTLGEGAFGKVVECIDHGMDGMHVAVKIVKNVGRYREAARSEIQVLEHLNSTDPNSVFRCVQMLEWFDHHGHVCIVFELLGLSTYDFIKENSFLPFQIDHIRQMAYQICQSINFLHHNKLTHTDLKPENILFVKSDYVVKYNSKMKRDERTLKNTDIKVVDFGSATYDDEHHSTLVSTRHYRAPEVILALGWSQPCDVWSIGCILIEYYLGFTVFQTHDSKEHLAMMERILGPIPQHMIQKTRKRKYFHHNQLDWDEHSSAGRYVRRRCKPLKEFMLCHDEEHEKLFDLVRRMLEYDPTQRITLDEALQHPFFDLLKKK

The source made the active and inactive calls.
Note: in the data inactive means no Kd found up to 30 µM.

The Kd is the constant that tells how readily two partners part at equilibrium. Turning to `Cn1cc(-c2ccc(F)c(C(F)(F)F)c2)nc1C1CCN(c2ncnc3[nH]ncc23)CC1` [LY-2584702], the Kd in assay [1], in assay [2], in assay [3] and in assay [4] was > 30 µM (inactive) each time.
For `CCn1c(=O)c(-c2cc[nH]n2)cc2c(C)nc(N)nc21` [VOXTALISIB], the Kd in assay [1], in assay [5], in assay [3] and in assay [4] was > 30 µM (inactive) each time.
Consider `CO[C@H]1C[C@@H]2CC[C@@H](C)[C@@](O)(O2)C(=O)C(=O)N2CCCC[C@H]2C(=O)O[C@H]([C@H](C)C[C@@H]2CC[C@@H](OCCO)[C@H](OC)C2)CC(=O)[C@H](C)/C=C(\C)[C@@H](O)[C@@H](OC)C(=O)[C@H](C)C[C@H](C)/C=C/C=C/C=C/1C` [EVEROLIMUS], for which the Kd in assay [1], in assay [6], in assay [2], in assay [3] and in assay [4] was > 30 µM (inactive) each time.
On to `Cn1ncc(Cl)c1-c1cc(C(=O)N[C@H](CN)Cc2cccc(F)c2)sc1Cl` [AFURESERTIB], for which, in assay [1], the Kd is > 30 µM (inactive).
Take `CNC(=O)CN1CCC(Oc2cc3c(Nc4cccc(Cl)c4F)ncnc3cc2OC)CC1` [SAPITINIB]: the Kd in assay [1], in assay [6] and in assay [2] was > 30 µM (inactive) each time.
Regarding `CCn1c(-c2nonc2N)nc2c(C#CC(C)(C)O)ncc(OC[C@H]3CCCNC3)c21` [GSK-690693], the Kd in assay [5], in assay [3] and in assay [4] was > 30 µM (inactive) in each case.
`Cc1cc(Nc2cc(N3CCN(C)CC3)nc(/C=C/c3ccccc3)n2)n[nH]1` [ENMD-2076]: the Kd in assay [5], in assay [3] and in assay [4] was > 30 µM (inactive) throughout.
As to `COC(=O)[C@@]1(O)C[C@H]2O[C@]1(C)n1c3ccccc3c3c4c(c5c6ccccc6n2c5c31)C(=O)NC4` [K-252A], the Kd in assay [6] is 0.015 µM (active); in assay [2], 0.494 µM (active); in assay [4], > 30 µM (inactive).
Consider `CNS(=O)(=O)Nc1nccc(Cc2c(C)c3ccc(Oc4ncccn4)cc3oc2=O)c1F` [AVUTOMETINIB], for which the Kd in assay [1], in assay [6], in assay [2], in assay [3] and in assay [4] was > 30 µM (inactive) throughout.
For `Cc1c(F)cc(C(=O)NC2CC2)cc1-c1ccc(C(=O)NCC(C)(C)C)cn1` [LOSMAPIMOD], the Kd in assay [1] and in assay [3] was > 30 µM (inactive) throughout.
Regarding `C=CC(=O)N1CCC(Oc2cc3c(Nc4ccc(Cl)c(Cl)c4F)ncnc3cc2OC)CC1` [POZIOTINIB], the Kd in assay [1], in assay [2] and in assay [3] was > 30 µM (inactive) in each case.
As to `CN1CCN(c2ccc3nc(-c4c(N)c5c(F)cccc5[nH]c4=O)[nH]c3c2)CC1` [DOVITINIB], the Kd in assay [3] is > 30 µM (inactive).
For `Cc1cc2c(F)c(Oc3ncnn4cc(OC[C@@H](C)OC(=O)[C@H](C)N)c(C)c34)ccc2[nH]1` [BRIVANIB ALANINATE], the Kd in assay [1], in assay [2] and in assay [4] was > 30 µM (inactive) throughout.
As for `O=C(Nc1cccc(Cl)c1)Nc1ncc(CCNc2ncnc3ccsc23)s1` [SNS-314], the Kd in assay [5], in assay [3] and in assay [4] was > 30 µM (inactive) each time.
For the compound `C1=C/COCc2cc(ccc2OCCN2CCCC2)Nc2nccc(n2)-c2cccc(c2)COC/1` [PACRITINIB], the Kd in assay [1] was > 30 µM (inactive); in assay [5], > 30 µM (inactive); in assay [2], 0.715 µM (active); in assay [3] it was > 30 µM (inactive); in assay [4], > 30 µM (inactive).
With `CNC(=O)c1ccc(C)c(-n2c(C)cc(OCc3ccc(F)cc3F)c(Br)c2=O)c1` [PH-797804], the Kd in assay [1] and in assay [2] was > 30 µM (inactive) throughout.
On to `N[C@@H]1CCCN(c2c(/C=C3\SC(=O)NC3=O)cccc2-c2ccccc2)C1`, for which the Kd in assay [1], in assay [5], in assay [2] and in assay [3] was > 30 µM (inactive) throughout.
On to `Cc1nc(N)sc1-c1ccnc(Nc2ccc(N3CCOCC3)cc2)n1` [CYC-116], for which the Kd in assay [5], in assay [3] and in assay [4] was > 30 µM (inactive) each time.
On to `CN1CCC(CNc2ccc3ncc(-c4cccc(OC(F)(F)F)c4)n3n2)CC1` [SGI-1776], for which the Kd in assay [1], in assay [5], in assay [2], in assay [3] and in assay [4] was > 30 µM (inactive) each time.
For the compound `CC(C)Nc1cc(-c2c[nH]c(C(=O)N[C@H](CO)c3cccc(Cl)c3)c2)c(Cl)cn1` [ULIXERTINIB], the Kd in assay [1], in assay [6], in assay [5] and in assay [2] was > 30 µM (inactive) throughout.
Take `Cc1cn(-c2cc(NC(=O)c3ccc(C)c(Nc4nccc(-c5cccnc5)n4)c3)cc(C(F)(F)F)c2)cn1` [NILOTINIB]: the Kd in assay [5], in assay [3] and in assay [4] was > 30 µM (inactive) throughout.
`CN1N=C(N)c2cn([C@@H]3O[C@H](COP(=O)(O)O)[C@@H](O)[C@H]3O)c3ncnc1c23` [TRICIRIBINE PHOSPHATE]: the Kd in assay [1], in assay [5], in assay [2], in assay [3] and in assay [4] was > 30 µM (inactive) each time.
